Source: the NIST ThermoML archive (doi:10.1016/j.tca.2013.02.009)
Numbers after ± are expanded uncertainties.

Assay: molar heat capacity at constant pressure
Details: 101.33 kPa, Crystal, Large sample (1 g) DSC

[O-2].[O-2].[O-2].[Y+3].[Y+3] [yttrium oxide (Y2O3)]
Details	molar heat capacity at constant pressure [J/K/mol]
603 K	122.98 ± 5.2
613 K	123.25 ± 5.2
623 K	123.52 ± 5.2
633 K	123.77 ± 5.2
643 K	124 ± 5.3
653 K	124.22 ± 5.3
663 K	124.43 ± 5.3
673 K	124.63 ± 5.3
683 K	124.82 ± 5.3
693 K	125 ± 5.3
703 K	125.16 ± 5.3
713 K	125.32 ± 5.3
723 K	125.47 ± 5.3
733 K	125.62 ± 5.3
743 K	125.75 ± 5.3
753 K	125.88 ± 5.3
763 K	126 ± 5.3
773 K	126.12 ± 5.3
783 K	126.22 ± 5.4
793 K	126.33 ± 5.4
803 K	126.42 ± 5.4
813 K	126.52 ± 5.4
823 K	126.6 ± 5.4
833 K	126.68 ± 5.4
843 K	126.76 ± 5.4
853 K	126.83 ± 5.4
863 K	126.9 ± 5.4
873 K	126.97 ± 5.4
883 K	127.03 ± 5.4
893 K	127.09 ± 5.4
903 K	127.14 ± 5.4
913 K	127.19 ± 5.4
923 K	127.24 ± 5.4
933 K	127.28 ± 5.4
943 K	127.32 ± 5.4
953 K	127.36 ± 5.4
963 K	127.4 ± 5.4
973 K	127.43 ± 5.4
983 K	127.46 ± 5.4
993 K	127.49 ± 5.4
1003 K	127.52 ± 5.4
1013 K	127.54 ± 5.4
1023 K	127.57 ± 5.4
1033 K	127.59 ± 5.4
1043 K	127.61 ± 5.4
1053 K	127.62 ± 5.4
1063 K	127.64 ± 5.4
1073 K	127.65 ± 5.4
1083 K	127.66 ± 5.4
1093 K	127.67 ± 5.4
1103 K	127.68 ± 5.4
1113 K	127.68 ± 5.4
1123 K	127.68 ± 5.4
1133 K	127.69 ± 5.4
1143 K	127.69 ± 5.4
1153 K	127.69 ± 5.4
1163 K	127.7 ± 5.4
1173 K	127.7 ± 5.4
1183 K	127.7 ± 5.4
1193 K	127.7 ± 5.4
1203 K	127.69 ± 5.4
